Laboratory results: patent US20060252735A1, “Treatment of graft-versus-host disease and leukemia with beclomethasone dipropionate and prednisone” (DOR BioPharma, Inc., priority 2004, published 2006)

Legend:
[1] = test system: patients with Grade II GVHD with GI symptoms; experiment: Phase III randomized, double-blind, placebo-controlled trial: treatment failure with oral BDP plus 10 days of prednisone; type: in vivo, human; settings: for Cumulative events (treatment failures): full analysis set, 62 randomized
Source text: The Secondary objectives of the study were:
To be eligible for entry into the study, patients were at least 10 days post allogeneic hematopoietic cell transplantation, have GI symptoms consistent with Grade II GVHD, and had endoscopic evidence of GVHD. The diagnosis of GVHD was confirmed by biopsy of the intestine (esophagus, stomach, small intestine, or colon) or skin. A total of 129 eligible patients were randomized to one of two treatment groups.
(§1) The randomization was stratified by the source of the allograft (two HLA haplotype identical sibling versus all other), and by topical corticosteroid use (yes versus no). All patients received 10 days of prednisone at 1 mg/kg/day (or an equivalent dose of intravenous [IV] corticosteroid). On Study Day 10, patients determined by the investigator to have their GVHD controlled had their prednisone tapered rapidly over 7 days starting on Study Day 11, and received a maintenance prednisone dose of 0.0625 mg/kg/day for the remainder of the study. BDP doses were evenly divided to include equal quantities of the IR and EC formulations administered four times per day.
1. Treatment failure, defined as use of prednisone or equivalent IV corticosteroids at doses higher than stated in protocol, or addition of other immunosuppressant medications.
The primary efficacy endpoint of this two-arm study was the time to treatment failure. The primary efficacy analysis will compare the time to treatment failure through Study Day 50 using a log-rank test controlling for patient randomization stratum. Product-limit estimates for time to failure will be provided for descriptive purposes. The null hypothesis for the log-rank test is that time to failure is homogeneous across the treatment groups.
Secondary analyses of treatment failure compared the treatment groups with respect to proportion of treatment failures and Karnofsky Scale (or Lansky Scale) scores at key time points. The difference in proportion of treatment failures on Study Days 10, 30, 50, 60, and 80 was evaluated using a two-sided Fisher's Exact test of the null hypothesis of no difference between the treatment groups. The difference in Karnofsky Scale (or Lansky Scale) scores at the same time points was evaluated using a two-sided Wilcoxon test to evaluate the null hypothesis of no difference in medians between treatment groups.
On Study Day 10, patients were evaluated for the signs and symptoms of GVHD. Patients in both treatment groups who met the response criterion of adequately controlled GVHD, as judged by the investigator, had their prednisone tapered over 7 days starting on Study Day 11 (Table 2). Starting on Study Day 17, physiologic replacement doses of prednisone were given for the remainder of the study. If the investigator determined that GVHD was not controlled on Study Day 10, patients discontinued study drug but continued prednisone initially at 1 mg/kg/day; these patients were considered to be treatment failures. In treatment failure cases, physicians subsequently modifiedy prednisone dosage as deemed appropriate.
One hundred and twenty-nine (129) post-bone marrow transplant patients presenting with Grade II iGVHD were enrolled in the randomized, double-blind, placebo-controlled, multi-center clinical trial, which was conducted at 16 bone marrow transplant centers in the United States and France. All patients in the Phase III clinical trial were initially treated with a constant daily dose of high dose (1-2 mg/kg) prednisone, which is the current standard therapy, in combination with an oral dose of either orBec® (8 mg/day) or placebo for the first 10 days. On day 10, if patients were responding to treatment, the high dose prednisone was rapidly tapered and patients continued to receive either orBec® or placebo orally for an additional forty days. […]

[2] = test system: patients with Grade II GVHD with GI symptoms; experiment: Phase III trial: survival/mortality through 200 days post-transplant; type: in vivo, human
Protocol: 5. To compare the treatment groups with respect to total deaths and cause of death through 200 days post-transplant.
as §1
7. Patient survival through day 200 post-transplant.
One hundred and twenty-nine (129) post-bone marrow transplant patients presenting with Grade II iGVHD were enrolled in the randomized, double-blind, placebo-controlled, multi-center clinical trial, which was conducted at 16 bone marrow transplant centers in the United States and France. All patients in the Phase III clinical trial were initially treated with a constant daily dose of high dose (1-2 mg/kg) prednisone, which is the current standard therapy, in combination with an oral dose of either orBec® (8 mg/day) or placebo for the first 10 days. On day 10, if patients were responding to treatment, the high dose prednisone was rapidly tapered and patients continued to receive either orBec® or placebo orally for an additional forty days. The primary endpoint of the study was a comparison between the two treatment arms of the time to treatment failure, defined as the need for additional therapies due to uncontrolled signs or symptoms of GVHD. Secondary endpoints in the study included a comparison of the proportion of treatment failures and clinical scores at 10 Days, 30 Days, 50 Days, 60 Days and 80 Days post-randomization, a comparison of cumulative exposure to systemic steroids, as well as a comparison of mortality at Day 200 post-transplant.

[3] = test system: gastrointestinal GVHD patients; settings: cited from earlier work
[4] = test system: patients with Grade II GVHD with gastrointestinal symptoms; settings: oral BDP 8 mg/day for 30 days as adjuvant to prednisone; cited from earlier work
Grade II GI GVHD = settings: capsule form, 8 mg/day divided into 4 equal doses; cited from earlier work
[5] = 200 days post-transplant, safety population, 61 evaluable
[6] = orBec n = 62, p 0.006 vs placebo
[7] = up to 28 days of BDP 8 mg/day, both groups (taking prednisone or not)

CCC(=O)OCC(=O)[C@@]1(OC(=O)CC)[C@@H](C)C[C@H]2[C@@H]3CCC4=CC(=O)C=C[C@]4(C)[C@@]3(Cl)[C@@H](O)C[C@@]21C [BDP, Beclomethasone 17,21-dipropionate]
Cumulative treatment failure rate (Kaplan-Meier estimate) ([1]; Study day 10, P = 0.1538 vs placebo): 0.14 | Cumulative events (treatment failures) ([1]; Study day 10): 8 | Cumulative treatment failure rate (Kaplan-Meier estimate) ([1]; Study day 30, P = 0.3625 vs placebo): 0.25 | Cumulative events (treatment failures) ([1]; Study day 30): 15 | Cumulative treatment failure rate (Kaplan-Meier estimate) ([1]; Study day 50, P = 0.0515 vs placebo): 0.31 | Cumulative events (treatment failures) ([1]; Study day 50): 18 | Cumulative treatment failure rate (Kaplan-Meier estimate) ([1]; Study day 60, P = 0.0558 vs placebo): 0.33 | Cumulative events (treatment failures) ([1]; Study day 60): 19 | Cumulative treatment failure rate (Kaplan-Meier estimate) ([1]; Study day 80, P = 0.0048 vs placebo): 0.39 | Cumulative events (treatment failures) ([1]; Study day 80): 22 | time to treatment failure through Day 50 (primary endpoint) versus placebo ([1]; log-rank, p-value 0.1177): did not achieve statistical significance | Treatment Failure Rate at Study Day 80 ([1]; orBec 8 mg/day for 50 days + prednisone, n = 62, p 0.0048 vs placebo): 39% | Treatment Failure Rate at Study Day 50 ([1]; orBec 8 mg/day for 50 days + prednisone, n = 62, p 0.0515 vs placebo): 31% | time to treatment failure through Day 80 (secondary endpoint) versus placebo ([1]; p-value 0.0226): did achieve statistical significance | Survival status: Alive, number of subjects [2, 5]: 56 | Survival status: Alive, percent of subjects [2, 5]: 92% | Survival status: Dead, number of subjects [2, 5]: 5 | Survival status: Dead, percent of subjects [2, 5]: 8% | reduction in mortality versus placebo group ([2]; Day 200 post-transplant period): 70% | Mortality Rate at 200 Days Post-Transplant [2, 6]: 8% | Mortality at 200 Days Post-Transplant, number of deaths [2, 6]: 5 | Day 200 survival rate ([2]; safety population, Z = 2.750, P = 0.0060 vs placebo): 0.91 | study drug associated adverse events reported ([3]; BDP 8 mg/day for 28 days): mild metallic taste and mild peri-umbilical heaviness | treatment-related adverse events ([3]; BDP 8 mg/day for 28 days): No significant treatment-related adverse events were observed | timing of response versus historical high dose prednisone ([3]; BDP alone group): appeared to be slower | gastrointestinal symptoms versus baseline [3, 7]: abatement of most gastrointestinal symptoms | oral food intake versus baseline [3, 7]: increase in oral food intake | gastrointestinal symptoms (nausea, vomiting, diarrhea) versus placebo group [4]: all improved | proportion of patients with increased oral caloric intake versus prednisone plus placebo [4]: significantly higher proportion | clinical benefit in treatment of Grade II GI GVHD (Grade II GI GVHD): provide clinical benefit
